Laboratory results published in patent publication US9173397B2, “Formulation component” (Syngenta Limited, priority 2011, dated 2015).

Legend:
Tetranychus urticae = test: Mortality of two spotted spider mite on French bean plants, abamectin with/without Morflex 560; type: in vivo, Tetranychus urticae (on Phaseolus vulgaris)
Method: The efficacy of tri-n-hexyltrimellitate (Morflex® 560) as an adjuvant in compositions containing abamectin was tested and compared to the efficacy of abamectin compositions which lack this type of adjuvant. The Morflex 560 was present at 0.1% v/v in the abamectin compositions. The surfactants polyoxyethylene sorbitan monooleate and an ethoxylated castor oil were also present in all the abamectin compositions tested. Two week old French bean (Phaseolus vulgaris) plants were infested with a mixed population of two spotted spider mite Tetranychus urticae. One day after infestation the plants were treated with the test compositions, with a track sprayer from the top with a rate of 200 liters per hectare. Plants were incubated in the greenhouse for 10 days and the evaluation was done on mortality against Larva and Adults, just on the lower side (untreated) of the leaves. Each experiment was replicated twice and the results were averaged. The mortality against Larva and Adults was then averaged.

[1] = system: Alopecurus myosuroides, Avena fatua, Lolium perenne, Setaria viridis; test: Glasshouse weed kill, pinoxaden with/without adjuvants (Example 8); type: in vivo; settings: conclusion from Table 9
Method: The efficacy of the aromatic esters tri-n-hexyltrimellitate (Morflex®560) and tri-isodecylmellitate (Morflex®530) as adjuvants for pinoxaden were tested in a glasshouse against four weed species. An agrochemical composition was prepared containing 0.2% v/v of the adjuvant in a track sprayer and was applied at a volume of 200 liters per hectare. Pinoxaden was applied at either 7.5 or 15 grams per hectare on each of the weed species. The weed species and their growth stage at spraying were Alopecurus myosuroides (ALOMY; growth stage 13), Avena fatua (AVEFA; growth stage 12); Lolium perenne (LOLPE; growth stage 13), Setaria viridis (SETVI; growth stage 14).
Each spray test was replicated three times. The efficacy of the herbicide was assessed visually and expressed as a percentage of the leaf area killed. Samples were assessed at time periods of 7 and 14 days following application. The results shown in Table 9 below are mean averages over the two rates of pinoxaden, three replicates, four weed species and the two assessment timings. The results were compared to the efficacy of pinoxaden in the absence of an adjuvant and pinoxaden in the presence of either tri-2-ethylhexyl phosphate (applied at 0.5% v/v) or methyl oleate (applied at 0.2% v/v).

[2] = system: Alopecurus myosuroides, Avena fatua, Lolium perenne, Setaria viridis; test: Glasshouse weed kill, pinoxaden with/without adjuvants (Example 6); type: in vivo; settings: conclusion from Table 7
Method: The efficacy of the aromatic ester tri-n-hexyltrimellitate (Morflex®560) was tested in a glasshouse against four weed species using the herbicide pinoxaden. An agrochemical composition was prepared containing 0.2% v/v of the adjuvant in a track sprayer and was applied at a volume of 200 liters per hectare. The adjuvant oils were emulsified using a small amount of the surfactant Pluronic® PE 10500, which was present in the composition at a concentration of 0.02% v/v. Pinoxaden was applied at either 7.5 or 15 grams of pesticide per hectare on each of the weed species. The weed species and their growth stage at spraying were Alopecurus myosuroides (ALOMY; growth stage 13), Avena fatua (AVEFA; growth stage 12); Lolium perenne (LOLPE; growth stage 13), Setaria viridis (SETVI; growth stage 14).
Each spray test was replicated three times. The efficacy of the herbicide was assessed visually and expressed as a percentage of the leaf area killed. Samples were assessed at time periods of 14 and 21 days following application. The results shown in table 7 below are mean averages over the two rates of pinoxaden, three replicates, four weed species and the two assessment timings, and are compared to the efficacy of pinoxaden in the absence of adjuvant and pinoxaden in the presence of the known adjuvant acetyl tributyl citrate which was used at a concentration of 0.2% w/w.

Question: `CCCCCCOC(=O)c1ccc(C(=O)OCCCCCC)c(C(=O)OCCCCCC)c1` [Tri-n-hexyltrimellitate, Tri-n-hexyl trimellitate] was tested. Which “mortality of Tetranychus urticae” value (Tetranychus urticae; composition without abamectin, 0.1% v/v Morflex 560) did it give?
Answer: no mortality was observed

Question: And the “adjuvant efficacy in words (abamectin, Tetranychus urticae)” value (Tetranychus urticae; conclusion from Table 10)?
Answer: provided effective control of Tetranychus urticae at much lower concentrations of abamectin than are required in the absence of adjuvant

Question: And the “adjuvant efficacy in words (pinoxaden)” value [1]?
Answer: increases the efficacy of pinoxaden

Question: And the “adjuvant efficacy in words (pinoxaden)” value [2]?
Answer: more effective an adjuvant than acetyl tributyl citrate
